Experimental data as given in US20110039762A1, “TARGETED ANTIMICROBIAL MOIETIES” (C3 JIAN, INC., priority 2009, published 2011).

Legend:
S. pneumoniae = assay: Kill or inhibit growth/proliferation; morphology, biofilm and growth disruption (Tables 5, 6); type: cell-based, Streptococcus pneumoniae; set-up: key: A: Peptide aggregates; B: Less hyphal formation; Clumps; Diffuse clumps and small polyps; F: Diffuse growth; H: Thin; I: Growth inhibition; Microcolony formation; Rippled; Small polyps; Thick; W: Halo formation on top, microlonies on bottom; further: test concentration or dose not given here
[1] = test system: microorganisms (e.g., bacteria, yeasts, fungi); assay: Targeting peptide binding to target microorganisms (Table 3); settings: peptide binding in aqueous buffers varied by peptide solubility; preferably 1x PBS

Substance | Organism, effect (morphology, biofilm and growth disruption) (S. pneumoniae) | Target(s) (microorganisms bound by the targeting peptide) [1]
PF-653 (chain 1 QSVHPLPAETPVADVI; chain 2 QSVHPLPAETPVADVI; Peptide with targeting and/or antimicrobial activity) | S. pneumoniae (H) | Mycobacteria spp
PF-660 (chain 1 TDPQATAAPRRRTSPR; chain 2 TDPQATAAPRRRTSPR; Peptide with targeting and/or antimicrobial activity) | S. pneumoniae (H) | Mycobacteria spp
PF-662 (chain 1 GKQSRAHGPVASRREFRRKSG; chain 2 GKQSRAHGPVASRREFRRKSG; Peptide with targeting and/or antimicrobial activity) | S. pneumoniae (A) | Mycobacteria spp
PF-663 (chain 1 ATLIPRKA; chain 2 ATLIPRKA; Peptide with targeting and/or antimicrobial activity) | S. pneumoniae (A) | Mycobacteria spp
PF-665 (chain 1 VLRVATAVGEVPTGL; chain 2 VLRVATAVGEVPTGL; Peptide with targeting and/or antimicrobial activity) | S. pneumoniae (H) | Mycobacteria spp
PF-666 (chain 1 PNRRSRPR; chain 2 PNRRSRPR; Peptide with targeting and/or antimicrobial activity) | S. pneumoniae (A) | Mycobacteria spp
PF-682 (chain 1 RRGKSEQGLSRR; chain 2 RRGKSEQGLSRR; Peptide with targeting and/or antimicrobial activity) | S. pneumoniae (A) | Mycobacteria spp
PF-687 (chain 1 AKRVLSLAVAPHRRQPVQGT; chain 2 AKRVLSLAVAPHRRQPVQGT; Peptide with targeting and/or antimicrobial activity) | S. pneumoniae (A) | Mycobacteria spp
PF-688 (chain 1 ARNHAVIPAG; chain 2 ARNHAVIPAG; Peptide with targeting and/or antimicrobial activity) | S. pneumoniae (A) | Mycobacteria spp
PF-691 (chain 1 HRTVEFGVLGTYLVSGGSL; chain 2 HRTVEFGVLGTYLVSGGSL; Peptide with targeting and/or antimicrobial activity) | S. pneumoniae (R) | Mycobacteria spp
PF-693 (chain 1 PDPAR; chain 2 PDPAR; Peptide with targeting and/or antimicrobial activity) | S. pneumoniae (A) | Mycobacteria spp
PF-696 (chain 1 IRSGISAAYARPLR; chain 2 IRSGISAAYARPLR; Peptide with targeting and/or antimicrobial activity) | S. pneumoniae (H) | Mycobacteria spp
PF-699 (chain 1 GRAGVKCRRPTGR; chain 2 GRAGVKCRRPTGR; Peptide with targeting and/or antimicrobial activity) | S. pneumoniae (A) | Mycobacteria spp
PF-700 (chain 1 LNWPFTGR; chain 2 LNWPFTGR; Peptide with targeting and/or antimicrobial activity) | S. pneumoniae (C) | Mycobacteria spp
